Two molecules from PMC5962351 (Nature, 2018) can be followed below.

Format in all cases: binding
The target of assay [1] is GluN1 (GluN1/GluN2B NMDA receptor) (Xenopus laevis, UniProt A0A1L8F5J9+A7XY94).
Assay [2] deals with GluN1 (GluN1/GluN2B ∆ATD NMDA receptor) (Xenopus laevis, UniProt A0A1L8F5J9+A7XY94, A0A1L8F5J9:DEL23-393/A0A1L8F5J9:G610R). Briefly: X-ray crystal structure.
For assay [3], the target named is GluN1 (GluN1/GluN2B NMDA receptor) (Xenopus laevis, UniProt A0A1L8F5J9+A7XY94, A0A1L8F5J9:G610R). Briefly: competition with 3H-MK-801, scintillation proximity assay. In general terms: Scintillation proximity formats need no separation of bound from free tracer.

In general, Kd refers to a measure of binding affinity in units of concentration. Lower therefore signals tighter binding. For `C[C@]12N[C@H](Cc3ccccc31)c1ccccc12` [MK-801], the results for the Kd in assay [1] and in assay [2] were 111 ± 8.5 nM and 1600 ± 300 nM, respectively.

The Ki is the equilibrium dissociation constant of an inhibitor or competing ligand from its target. The low end stands for a stronger hold on the target, the high end for a looser hold on the target. For the molecule `CC12CC3CC(C)(C1)CC(N)(C3)C2` [memantine], in assay [3], the Ki was approximately 147000 nM.
